Results as given in PMC3834177 (Cancer Chemotherapy and Pharmacology, 2013).
Marks after values point to notes of the source that are not given here.

Experiment: Midazolam PK when administered with midostaurin
Conditions: for AUC0–inf, adjusted geometric mean / AUC0–last, adjusted geometric mean / C max, adjusted geometric mean / t max, median: plasma, n = 18
Text: Both inhibition and induction of midazolam clearance were investigated.
Similarly, blood and urine samples were taken on days 1, 3, 6, 7, 8, and 9 to measure the levels of 4β-hydroxycholesterol in plasma and the 6β-hydroxycortisol/cortisol ratio in urine, markers of CYP3A4 activity.
The PK parameters of midazolam and its metabolites (C max, t max, AUC0–last, AUCinf, and t 1/2) were derived using a noncompartmental method with the aid of WinNonLin 5.2. […] Following log transformation, the primary PK parameters were analyzed using a linear, mixed-effects model using the term of treatment as a fixed factor (reference, test 1, test 2) and subject as a random factor. A point estimate and the corresponding 90 % CI for the difference in test 1 versus reference and the difference in test 2 versus reference were derived from the respective contrasts of the model estimates and anti-logged to obtain the GMR and respective 90 % CI.
The concentration of ketoconazole in plasma was assessed using a validated LC–MS/MS assay with an LLOQ of 50.0 ng/mL (WuXi Pharmatech Co, Ltd, China). The concentration of rifampicin in plasma was measured using a validated LC–MS/MS assay with an LLOQ of 5.0 ng/mL (SGS, Cephac Europe, SAS). Plasma concentrations of midazolam and its metabolite 1′-hydroxymidazolam, which is generated by CYP3A4 and CYP3A5 in humans, were measured using a validated LC–MS/MS assay with an LLOQ of ≈0.100 ng/mL (SGS, Cephac Europe, SAS). The plasma concentration of 4β-hydroxycholesterol was measured using a validated LC–MS/MS assay with an LLOQ of 3.0 ng/mL (SGS, Cephac Europe, SAS). The concentrations of 6β-hydroxycortisol and cortisol in urine were determined using validated LC–MS/MS assays with an LLOQ of 10.0 ng/mL for 6β-hydroxycortisol and 1.0 ng/mL for cortisol. The ratio of 6β-hydroxycortisol to cortisol was subsequently calculated (SGS, Cephac Europe, SAS). See Supplementary Table 2 for detailed bioanalytical methods for all 3 studies.

[1] = day 8 (after repeated doses of midostaurin) vs day 1
[2] = Midazolam + midostaurin (day 3)

OCc1ncc2n1-c1ccc(Cl)cc1C(c1ccccc1F)=NC2 [1′-Hydroxymidazolam]
change in AUCinf (day 3 (co-administration of midostaurin) vs day 1): No change | average decrease in C max (day 3 (co-administration of midostaurin) vs midazolam alone day 1): 1.2 fold | t max, Hodges–Lehmann estimate of median difference (90 % distribution-free CI) (day 3/day 1 comparison): 0.13 (−0.50 to 1.50)^b h | average decrease in AUCinf [1]: 1.3 fold | average decrease in C max [1]: 1.3 fold | t max, Hodges–Lehmann estimate of median difference (90 % distribution-free CI) (day 8/day 1 comparison): 0.01 (−0.23 to 0.26)^c h | AUC0–inf, adjusted geometric mean (Midazolam (day 1), midazolam 4 mg alone): 18.18 ng·h/mL | AUC0–last, adjusted geometric mean (Midazolam (day 1)): 15.91 ng·h/mL | C max, adjusted geometric mean (Midazolam (day 1)): 5.83 ng/mL | t max, median (Midazolam (day 1)): 30 min | AUC0–inf, adjusted geometric mean (Midazolam (day 8), midazolam 4 mg alone after repeated midostaurin): 13.74 ng·h/mL | AUC0–last, adjusted geometric mean (Midazolam (day 8)): 12.57 ng·h/mL | C max, adjusted geometric mean (Midazolam (day 8)): 4.37 ng/mL | t max, median (Midazolam (day 8)): 30 min | AUC0–inf, adjusted geometric mean (Midazolam + midostaurin (day 3), midazolam 4 mg + midostaurin 100 mg): 18.54 ng·h/mL | AUC0–last, adjusted geometric mean [2]: 15.87 ng·h/mL | C max, adjusted geometric mean [2]: 4.76 ng/mL
